From patent US8614201B2 (Janssen Pharmaceutica NV, priority 2009, dated 2013)

Target: Human TRPA1 (Homo sapiens, UniProt O75762)
Experiment: Assay 1: In vitro cellular testing of TRPA1 modulation (CHO-TREx, Fluo-3 calcium fluorescence, AITC agonist)
Assay type: cell-based
Set-up: expressed in transfected cells; host or cells: CHO-TREx cells (Invitrogen), vector pcDNA4/TO
Details: CHO-TREx cells expressing human TRPA1; Fluo-3 fluorescence (FLIPR/Tetra); agonist 15 μM allyl isothiocyanate (AITC); 30 minute antagonist incubation
How it was run: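 Tetracycline-induced CHO-TREx cells stably expressing human TRPA1, loaded with 4 μM Fluo-3 AM, preincubated 30 min with compound (serial dilution typically from 10 μM, three-fold steps) in HEPES saline pH 7.4. Fluorescence change over 3 min after 15 μM AITC; IC50 from Hill fit versus no-antagonist and 10 μM ruthenium red controls.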

Chain of Human TRPA1 (O75762 whole entry): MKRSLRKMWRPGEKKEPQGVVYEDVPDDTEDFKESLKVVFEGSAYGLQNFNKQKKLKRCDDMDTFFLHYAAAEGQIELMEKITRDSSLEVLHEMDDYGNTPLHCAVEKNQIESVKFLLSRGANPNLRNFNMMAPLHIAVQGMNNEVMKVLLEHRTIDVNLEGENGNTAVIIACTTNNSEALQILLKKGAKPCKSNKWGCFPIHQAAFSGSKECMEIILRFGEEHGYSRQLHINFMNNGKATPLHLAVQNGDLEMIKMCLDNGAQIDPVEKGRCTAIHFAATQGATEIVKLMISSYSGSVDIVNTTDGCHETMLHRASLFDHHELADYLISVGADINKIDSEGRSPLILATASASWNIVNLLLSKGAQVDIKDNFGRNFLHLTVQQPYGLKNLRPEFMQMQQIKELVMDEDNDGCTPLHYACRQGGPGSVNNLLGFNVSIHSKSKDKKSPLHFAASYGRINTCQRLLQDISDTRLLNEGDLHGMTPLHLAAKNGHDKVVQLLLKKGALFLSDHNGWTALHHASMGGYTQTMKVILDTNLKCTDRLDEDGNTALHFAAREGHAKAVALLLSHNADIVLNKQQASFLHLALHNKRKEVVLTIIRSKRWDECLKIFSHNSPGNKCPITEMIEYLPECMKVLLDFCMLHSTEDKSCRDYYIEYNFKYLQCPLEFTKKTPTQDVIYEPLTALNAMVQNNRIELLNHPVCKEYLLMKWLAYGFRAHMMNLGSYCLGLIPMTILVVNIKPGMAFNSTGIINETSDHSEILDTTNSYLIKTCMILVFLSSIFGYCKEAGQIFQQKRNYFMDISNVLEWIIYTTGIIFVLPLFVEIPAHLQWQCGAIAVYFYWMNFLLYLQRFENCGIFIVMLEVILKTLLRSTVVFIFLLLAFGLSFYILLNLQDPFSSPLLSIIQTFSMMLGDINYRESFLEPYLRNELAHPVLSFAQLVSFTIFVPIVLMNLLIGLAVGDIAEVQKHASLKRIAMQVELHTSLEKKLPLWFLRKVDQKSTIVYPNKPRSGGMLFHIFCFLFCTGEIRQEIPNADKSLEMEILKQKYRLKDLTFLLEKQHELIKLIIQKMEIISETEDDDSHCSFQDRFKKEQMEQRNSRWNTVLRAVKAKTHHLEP

SMILES | IC50
O=C(NCc1cc(-c2ccc(C(F)(F)F)cc2)nc(N2CCN(Cc3ccccc3)CC2)c1)[C@@H]1C=CCN1S(=O)(=O)c1ccc(F)cc1 [Example 361, (2S)—N-({2-(4-Benzylpiperazin-1-yl)-6-[4-(trifluoromethyl)phenyl]pyridin-4-yl}methyl)-1-[(4-fluorophenyl)sulfonyl]-2,5-dihydro-1H-pyrrole-2-carboxamide] | 452 nM
O=C(NCc1ccnc(-c2ccc(OC(F)(F)F)cc2)c1)[C@@H]1C=CCN1S(=O)(=O)c1ccc(F)cc1 [Example 133, 1-(4-Fluoro-benzenesulfonyl)-2,5-dihydro-1H-pyrrole-2S-carboxylic acid [2-(4-trifluoromethoxy-phenyl)-pyridin-4-ylmethyl]-amide] | 26 nM
O=C(NCc1cccc(-c2ccc(C(F)(F)F)cc2)c1)[C@@H]1C=CCN1S(=O)(=O)c1ccc(Cl)s1 [Example 112, 1-(5-Chlorothiophene-2-sulfonyl)-2,5-dihydro-1H-pyrrole-2S-carboxylic acid (4′-trifluoromethylbiphenyl-3-ylmethyl)-amide] | 11 nM
O=C(NCc1cc(-c2ccc(C(F)(F)F)cc2)nc(N2CCN(Cc3cccnc3)CC2)c1)[C@@H]1CCCN1S(=O)(=O)c1ccc(Cl)s1 [Example 341, 1-[(5-Chlorothiophen-2-yl)sulfonyl]-N-({2-[4-(pyridin-3-ylmethyl)piperazin-1-yl]-6-[4-(trifluoromethyl)phenyl]pyridin-4-yl}methyl)-L-prolinamide] | 693 nM
O=C(NCc1cccc(-c2ccc(N3CCOCC3)nc2)c1)[C@@H]1CCCN1S(=O)(=O)c1ccc(F)cc1 [Example 97, 1-(4-Fluorobenzenesulfonyl)-pyrrolidine-2S-carboxylic acid 3-(6-morpholin-4-yl-pyridin-3-yl)-benzylamide] | 1710 nM

The remaining lines, values ahead:

IC50 | SMILES
229 nM | O=C(NCc1cc(-c2ccc(C(F)(F)F)cc2)nc(-c2ccncc2)n1)[C@@H]1CCCN1S(=O)(=O)c1ccc(F)cc1 [Example 7, 1-(4-Fluoro-benzenesulfonyl)-pyrrolidine-2S-carboxylic acid [2-pyridin-4-yl-6-(4-trifluoromethyl-phenyl)-pyrimidin-4-ylmethyl]-amide]
20 nM | Cc1nc(CNC(=O)[C@@H]2CCCN2S(=O)(=O)c2ccc(F)cc2)cc(-c2ccc(C(F)(F)F)cc2)n1 [Example 183, 1-(4-Fluoro-benzenesulfonyl)-pyrrolidine-2S-carboxylic acid [2-methyl-6-(4-trifluoromethyl-phenyl)-pyrimidin-4-ylmethyl]-amide]
518 nM | O=C(NCc1cc(NCc2ccccn2)nc(-c2ccc(C(F)(F)F)cc2)c1)[C@@H]1CCCN1S(=O)(=O)c1ccc(Cl)s1 [Example 347, 1-[(5-Chlorothiophen-2-yl)sulfonyl]-N-({2-[(pyridin-2-ylmethyl)amino]-6-[4-(trifluoromethyl)phenyl]pyridin-4-yl}methyl)-L-prolinamide]
2980 nM | O=C(NCc1cc(NCc2cccnc2)nc(-c2ccc(C(F)(F)F)cc2)c1)[C@@H]1CCCN1S(=O)(=O)c1ccc(F)cc1 [Example 395, 1-[(4-Fluorophenyl)sulfonyl]-N-({2-[(pyridin-3-ylmethyl)amino]-6-[4-(trifluoromethyl)phenyl]pyridin-4-yl}methyl)-L-prolinamide]
13 nM | C[C@H]1CCCN1c1nc(CNC(=O)[C@@H]2CCCN2S(=O)(=O)c2ccc(F)cc2)cc(-c2ccc(C(F)(F)F)cc2)n1 [Example 26, 1-(4-Fluoro-benzenesulfonyl)-pyrrolidine-2S-carboxylic acid [2-(2S-methyl-pyrrolidin-1-yl)-6-(4-trifluoromethyl-phenyl)-pyrimidin-4-ylmethyl]-amide]
1690 nM | O=C(NCc1cc(-c2ccc(C(F)(F)F)cc2)nc(N2CCN(Cc3cccnc3)CC2)c1)[C@@H]1C=CCN1S(=O)(=O)c1ccc(F)cc1 [Example 365, (2S)-1-[(4-Fluorophenyl)sulfonyl]-N-({2-[4-(pyridin-3-ylmethyl)piperazin-1-yl]-6-[4-(trifluoromethyl)phenyl]pyridin-4-yl}methyl)-2,5-dihydro-1H-pyrrole-2-carboxamide]
